Source: the supplement of paper PMC10307832

Legend:
Assay in all cases: relative viability (nuclei count vs DMSO), 5 days (fraction); higher = more cells survive
Idelalisib + Luminespib = compound: CC[C@H](Nc1ncnc2[nH]cnc12)c1nc2cccc(F)c2c(=O)n1-c1ccccc1 [Idelalisib] + CCNC(=O)c1noc(-c2cc(C(C)C)c(O)cc2O)c1-c1ccc(CN2CCOCC2)cc1 [Luminespib] (partner 0.01 µM)
Procedure, shortened: (§1)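 Relative viability divides the nuclei count in treated wells by that in vehicle wells. Lung cancer cell lines were seeded in 1536-well plates, dosed by pin tool the next day, and fixed and stained after 5 days in one step with final 0.05% Triton X-100, 1% formaldehyde and 1 ug/ml Hoechst. Dosing was a single drug or a fixed anchor-drug dose plus five library-drug doses (not always all listed) in √10 steps, and values are medians of duplicate plates imaged at 4×.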

Idelalisib + Phenformin = compound: CC[C@H](Nc1ncnc2[nH]cnc12)c1nc2cccc(F)c2c(=O)n1-c1ccccc1 [Idelalisib] + N=C(N)NC(=N)NCCc1ccccc1 [Phenformin] (partner 250 µM)
Procedure, shortened: as §1

Pemetrexed + Alpelisib = compound: Nc1nc2[nH]cc(CCc3ccc(C(=O)N[C@@H](CCC(=O)O)C(=O)O)cc3)c2c(=O)[nH]1 [Pemetrexed] + Cc1nc(NC(=O)N2CCC[C@H]2C(N)=O)sc1-c1ccnc(C(C)(C)C(F)(F)F)c1 [Alpelisib] (partner 2 µM)
Procedure, shortened: as §1

Pemetrexed + Vorinostat = compound: Nc1nc2[nH]cc(CCc3ccc(C(=O)N[C@@H](CCC(=O)O)C(=O)O)cc3)c2c(=O)[nH]1 [Pemetrexed] + O=C(CCCCCCC(=O)Nc1ccccc1)NO [Vorinostat] (partner 1 µM)
Procedure, shortened: as §1

Cell Line	relative viability (Idelalisib + Luminespib; first compound 0.04 µM)	relative viability (Idelalisib + Luminespib; first compound 0.1265 µM)	relative viability (Idelalisib + Luminespib; first compound 0.4 µM)	relative viability (Idelalisib + Luminespib; first compound 1.265 µM)	relative viability (Idelalisib + Luminespib; first compound 4 µM)	relative viability (Idelalisib + Phenformin; first compound 0.04 µM)	relative viability (Idelalisib + Phenformin; first compound 0.1265 µM)	relative viability (Idelalisib + Phenformin; first compound 0.4 µM)	relative viability (Idelalisib + Phenformin; first compound 1.265 µM)	relative viability (Idelalisib + Phenformin; first compound 4 µM)	relative viability (Pemetrexed + Alpelisib; first compound 0.002 µM)	relative viability (Pemetrexed + Alpelisib; first compound 0.006325 µM)	relative viability (Pemetrexed + Alpelisib; first compound 0.02 µM)	relative viability (Pemetrexed + Alpelisib; first compound 0.06325 µM)	relative viability (Pemetrexed + Alpelisib; first compound 0.2 µM)	relative viability (Pemetrexed + Vorinostat; first compound 0.002 µM)	relative viability (Pemetrexed + Vorinostat; first compound 0.006325 µM)	relative viability (Pemetrexed + Vorinostat; first compound 0.02 µM)	relative viability (Pemetrexed + Vorinostat; first compound 0.06325 µM)	relative viability (Pemetrexed + Vorinostat; first compound 0.2 µM)
NCI-H441	0.365	0.354	0.308	0.308	0.316	0.803	0.919	0.639	0.885	0.898	0.667	0.686	0.932	0.531	0.53	0.693	0.788	0.763	0.695	0.262
NCI-H520	0.197	0.251	0.222	0.217	0.192	0.513	0.585	0.466	0.451	0.397	0.92	0.828	0.948	0.823	0.697	0.671	0.7	0.718	0.681	0.709
CAL-12T	0.302	0.635	0.362	0.564	0.264	0.622	0.614	0.507	0.65	0.67	1.03	0.976	1.11	1.15	1.05	0.634	0.683	0.852	0.704	0.821
HCC-827	1.18	0.545	0.478	0.249	0.374	0.424	0.393	0.37	0.352	0.323	0.891	0.977	0.996	1.07	0.726	0.764	0.912	0.959	0.515	0.426
LC-2-ad	1.17	1.06	0.886	1.14	0.957	0.602	0.592	0.462	0.626	0.546	0.888	0.936	0.833	0.232	0.187	0.657	0.671	0.663	0.319	0.27
NCI-H2170	0.548	0.843	0.645	0.61	0.673	0.443	0.449	0.403	0.408	0.373	0.723	0.831	0.905	0.869	0.824	0.564	0.813	0.899	0.823	0.45
SW 1573	0.275	0.171	0.219	0.17	0.365	0.383	0.37	0.336	0.36	0.336	0.826	0.741	0.723	0.733	0.76	0.697	0.541	1.04	0.747	0.653
SK-MES-1	0.847	0.689	0.591	0.546	0.542	0.704	0.675	0.663	0.686	0.674	0.92	0.732	1.04	0.864	0.8	1.07	0.994	1.18	1.11	0.993
NCI-H1648																0.397	0.138	0.399	0.465	0.551
NCI-H1793	0.208	0.253	0.166	0.179	0.183	0.388	0.369	0.288	0.335	0.224	0.672	0.692	0.83	0.624	0.677	0.613	0.792	0.69	0.986	0.796
NCI-H1299											1.07	1.03	1.01	1.01	1.06					
LCLC-97TM1	0.82	0.738	0.708	0.818	0.607	0.43	0.434	0.267	0.592	0.453	0.265	0.2	0.257	0.173	0.237	0.711	0.559	0.765	0.803	0.163
NCI-H1915	0.843	0.809	0.759	0.878	0.83	0.387	0.36	0.364	0.381	0.372	0.995	1.04	1.03	1.09	1.1	0.419	0.484	0.526	0.463	0.549
NCI-H661	0.985	0.907	0.85	0.987	1.04	0.271	0.256	0.256	0.269	0.281	0.732	0.563	0.621	0.636	0.794	0.761	0.72	0.821	0.8	0.745
NCI-H2405	0.777	0.621	0.473	0.52	0.442	0.451	0.37	0.322	0.355	0.35	0.896	0.714	0.868	0.712	0.736	0.929	1.2	1.07	1.02	0.96
NCI-H2347	0.506	0.581	0.448	0.362	0.532	0.395	0.386	0.372	0.284	0.313	0.858	0.893	1.07	0.869	0.633	0.49	0.487	0.609	0.468	0.436
NCI-H1651	0.789	1	0.832	0.809	0.605	0.35	0.372	0.258	0.322	0.321	0.951	0.948	0.939	0.952	0.93	0.553	0.562	0.642	0.44	0.548
H3255	1.13	0.786	0.78	0.882	0.878	0.359	0.329	0.351	0.352	0.336		0.656	0.736	0.606	0.632	0.66	0.767	0.753	0.817	0.596
Calu-6											0.995	1.01	1.05	0.918	0.954					
SW 900	0.21	0.193	0.152	0.183	0.165	0.683	0.458	0.634	0.614	0.395						0.499	0.523	0.682	0.576	0.406

Cell Line	relative viability (Idelalisib + Luminespib; first compound 0.04 µM)	relative viability (Idelalisib + Luminespib; first compound 0.1265 µM)	relative viability (Idelalisib + Luminespib; first compound 0.4 µM)	relative viability (Idelalisib + Luminespib; first compound 1.265 µM)	relative viability (Idelalisib + Luminespib; first compound 4 µM)	relative viability (Idelalisib + Phenformin; first compound 0.04 µM)	relative viability (Idelalisib + Phenformin; first compound 0.1265 µM)	relative viability (Idelalisib + Phenformin; first compound 0.4 µM)	relative viability (Idelalisib + Phenformin; first compound 1.265 µM)	relative viability (Idelalisib + Phenformin; first compound 4 µM)	relative viability (Pemetrexed + Alpelisib; first compound 0.002 µM)	relative viability (Pemetrexed + Alpelisib; first compound 0.006325 µM)	relative viability (Pemetrexed + Alpelisib; first compound 0.02 µM)	relative viability (Pemetrexed + Alpelisib; first compound 0.06325 µM)	relative viability (Pemetrexed + Alpelisib; first compound 0.2 µM)	relative viability (Pemetrexed + Vorinostat; first compound 0.002 µM)	relative viability (Pemetrexed + Vorinostat; first compound 0.006325 µM)	relative viability (Pemetrexed + Vorinostat; first compound 0.02 µM)	relative viability (Pemetrexed + Vorinostat; first compound 0.06325 µM)	relative viability (Pemetrexed + Vorinostat; first compound 0.2 µM)
NCI-H650	0.894	0.703	0.648	0.869	0.765	0.519	0.429	0.446	0.487	0.457	1.17	0.999	1.11	0.956	1.09	0.378	0.552		0.427	0.453
NCI-H460	0.0345	0.032	0.0291	0.0326	0.0297	0.643	0.516	0.438	0.503	0.515	0.479	0.344	0.518	0.151	0.0576		0.683	0.784	0.57	0.0651
NCI-H2228	0.0989	0.17	0.16	0.175	0.133	0.348	0.371	0.162	0.221	0.235	0.833	0.721	0.752	0.474	0.319	0.807	0.493	0.749	0.413	0.296
NCI-H2085	0.422	0.409	0.374	0.487	0.257	0.788	0.833	0.558	0.735	0.471	0.91	0.952	1.07	0.951	0.952	0.763	0.775	0.897	0.817	0.806
HCC-366						0.597	0.639	0.619	0.632	0.679	0.448	0.507	0.365	0.452	0.376	0.208	0.341	0.393	0.386	0.269
EPLC-272H	0.521	0.291	0.309	0.265	0.325	0.302	0.291	0.308	0.257	0.265	0.876	0.938	1.11	0.962	0.847	0.519	0.398	0.544	0.308	0.288
201T	1.12	1.07	1.02	1.02	0.849	0.497	0.416	0.328	0.488	0.423	1.07	1.05	1.03	1	0.955	0.867	0.971	1.03	1.03	0.848
NCI-H3122	0.0784	0.0938	0.115	0.0796	0.0833	0.389	0.371	0.403	0.41	0.388	0.94	0.833	0.734	0.772	0.521	1.12	0.893	0.96	0.755	0.454
NCI-H1650	0.18	0.191	0.198	0.219	0.185	0.439	0.341	0.35	0.371	0.379						0.521	0.671	0.634	0.443	0.234
NCI-H2342	0.764	0.757	0.629	0.72	0.496	0.597	0.584	0.514	0.614	0.482						0.824	0.831	0.749	0.773	0.843
NCI-H522	1.13		1.21	1.12	1.23	0.675	0.66	0.641	0.761	0.634						0.801	0.871	1.09	0.797	0.927
EBC-1											0.747	0.848	0.939	0.836	0.518					
ChaGo-K-1	0.558	0.632	0.516	0.523	0.537	0.49	0.453	0.424	0.477	0.436						0.721	0.735	0.751	0.293	0.233
HCC-78						0.945	0.647	0.582	0.751	0.674		0.316	0.324	0.228	0.174		0.447	0.401	0.294	0.328
IA-LM											0.797	0.716	0.737	0.771	0.67	0.95	0.988	1.1	0.808	0.982
NCI-H1703											0.319	0.38	0.333	0.338	0.379					
A549						0.36	0.182		0.154	0.178	0.695	0.682	0.946	0.785	0.774					
NCI-H1623	0.461	0.494	0.394	0.381	0.516	0.596	0.619	0.537	0.529	0.547										
NCI-H1563	0.562	0.543	0.557	0.519	0.5	0.666	0.666	0.612	0.631	0.638	0.904	0.922	0.976	0.875	0.954					
NCI-H1792	0.408	0.434		0.679	0.33	0.335	0.182		0.225	0.208	0.685	0.731	0.806	0.788	0.634					
